Experimental data: US9693556B2, “Herbicidal pyridazinone derivatives” (SYNGENTA LIMITED, priority 2011, dated 2017)

What was measured:
Type in all cases: in vivo
[1] = system: Alopecurus myosuroides (ALOMY); assay: Pre-emergence herbicidal glasshouse test on Alopecurus myosuroides; conditions: pre-emergence, 1000 g/h, evaluated after 13 days
How it was run: (§1)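 Plants sprayed 1 day (pre-emergence) or 8 days (post-emergence) after sowing with compound at 1000 g/h in acetone/water 50:50 with 0.5% Tween 20; glasshouse 24/16° C, 14 h light, 65% humidity. Damage assessed after 13 days, scored 1–5 (5 = 80-100%, 1 = 0-19%).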

Setaria faberi (SETFA) [2] = assay: Pre-emergence herbicidal glasshouse test on Setaria faberi; conditions: pre-emergence, 1000 g/h, evaluated after 13 days
How it was run: as §1

[3] = system: Echinochloa crus-galli (ECHCG); assay: Pre-emergence herbicidal glasshouse test on Echinochloa crus-galli; conditions: pre-emergence, 1000 g/h, evaluated after 13 days
How it was run: as §1

Solanum nigrum (SOLNI) [4] = assay: Pre-emergence herbicidal glasshouse test on Solanum nigrum; conditions: pre-emergence, 1000 g/h, evaluated after 13 days
How it was run: as §1

[5] = system: Amaranthus retoflexus (AMARE); assay: Pre-emergence herbicidal glasshouse test on Amaranthus retoflexus; conditions: pre-emergence, 1000 g/h, evaluated after 13 days
How it was run: as §1

[6] = system: Ipomoea hederacea (IPOHE); assay: Pre-emergence herbicidal glasshouse test on Ipomoea hederacea; conditions: pre-emergence, 1000 g/h, evaluated after 13 days
How it was run: as §1

[7] = system: Alopecurus myosuroides (ALOMY); assay: Post-emergence herbicidal glasshouse test on Alopecurus myosuroides; conditions: post-emergence, 1000 g/h, evaluated after 13 days
How it was run: as §1

Setaria faberi (SETFA) [8] = assay: Post-emergence herbicidal glasshouse test on Setaria faberi; conditions: post-emergence, 1000 g/h, evaluated after 13 days
How it was run: as §1

[9] = system: Echinochloa crus-galli (ECHCG); assay: Post-emergence herbicidal glasshouse test on Echinochloa crus-galli; conditions: post-emergence, 1000 g/h, evaluated after 13 days
How it was run: as §1

Solanum nigrum (SOLNI) [10] = assay: Post-emergence herbicidal glasshouse test on Solanum nigrum; conditions: post-emergence, 1000 g/h, evaluated after 13 days
How it was run: as §1

[11] = system: Amaranthus retoflexus (AMARE); assay: Post-emergence herbicidal glasshouse test on Amaranthus retoflexus; conditions: post-emergence, 1000 g/h, evaluated after 13 days
How it was run: as §1

[12] = system: Ipomoea hederacea (IPOHE); assay: Post-emergence herbicidal glasshouse test on Ipomoea hederacea; conditions: post-emergence, 1000 g/h, evaluated after 13 days
How it was run: as §1

| Compound | PRE Application ALOMY herbicidal damage (five point scale) [1] | PRE Application SETFA herbicidal damage (five point scale) (Setaria faberi (SETFA) [2]) | PRE Application ECHCG herbicidal damage (five point scale) [3] | PRE Application SOLNI herbicidal damage (five point scale) (Solanum nigrum (SOLNI) [4]) | PRE Application AMARE herbicidal damage (five point scale) [5] | PRE Application IPOHE herbicidal damage (five point scale) [6] | POST Application ALOMY herbicidal damage (five point scale) [7] | POST Application SETFA herbicidal damage (five point scale) (Setaria faberi (SETFA) [8]) | POST Application ECHCG herbicidal damage (five point scale) [9] | POST Application SOLNI herbicidal damage (five point scale) (Solanum nigrum (SOLNI) [10]) | POST Application AMARE herbicidal damage (five point scale) [11] | POST Application IPOHE herbicidal damage (five point scale) [12] | other results |
| --- | --- | --- | --- | --- | --- | --- | --- | --- | --- | --- | --- | --- | --- |
| Cn1ncc(-n2ccc(O)c(C#N)c2=O)c(O)c1=O [Compound 1.066] | 3 (3=40-59% damage) | 1 (1=0-19% damage) | 2 (2=20-39% damage) | 4 (4=60-79% damage) | 4 (4=60-79% damage) | 5 (5=80-100% damage) | 2 (2=20-39% damage) | 1 (1=0-19% damage) | 1 (1=0-19% damage) | 3 (3=40-59% damage) | 1 (1=0-19% damage) | 2 (2=20-39% damage) |  |
| CSc1ccn(-c2cnn(C)c(=O)c2O)c(=O)c1 [Compound 1.027] | 1 (1=0-19% damage) | 3 (3=40-59% damage) | 5 (5=80-100% damage) | 4 (4=60-79% damage) | 5 (5=80-100% damage) | 1 (1=0-19% damage) | 1 (1=0-19% damage) | 5 (5=80-100% damage) | 5 (5=80-100% damage) | 5 (5=80-100% damage) | 5 (5=80-100% damage) | 5 (5=80-100% damage) |  |
| Cc1cc(Cl)ccc1-c1c(C(F)(F)F)ccn(-c2cnn(C)c(=O)c2O)c1=O [Compound 7.038] | 5 (5=80-100% damage) | 3 (3=40-59% damage) | 5 (5=80-100% damage) | 5 (5=80-100% damage) | 5 (5=80-100% damage) | 4 (4=60-79% damage) | 5 (5=80-100% damage) | 3 (3=40-59% damage) | 5 (5=80-100% damage) | 5 (5=80-100% damage) | 5 (5=80-100% damage) | 5 (5=80-100% damage) |  |
| Cn1ncc(-c2ccc(Cl)cc2[N+](=O)[O-])c(O)c1=O [Compound 1.109] | 1 (1=0-19% damage) | 1 (1=0-19% damage) | 1 (1=0-19% damage) | 2 (2=20-39% damage) | 5 (5=80-100% damage) | 1 (1=0-19% damage) | 1 (1=0-19% damage) | 1 (1=0-19% damage) | 2 (2=20-39% damage) | 4 (4=60-79% damage) | 5 (5=80-100% damage) | 4 (4=60-79% damage) |  |
| Cc1ccc(-c2c(C(F)(F)F)ccn(-c3cnn(C)c(=O)c3O)c2=O)cc1[N+](=O)[O-] [Compound 7.027] | 3 (3=40-59% damage) | 3 (3=40-59% damage) | 5 (5=80-100% damage) | 5 (5=80-100% damage) | 5 (5=80-100% damage) | 1 (1=0-19% damage) | 3 (3=40-59% damage) | 5 (5=80-100% damage) | 5 (5=80-100% damage) | 5 (5=80-100% damage) | 5 (5=80-100% damage) | 2 (2=20-39% damage) |  |
| Cn1cccc(-c2cnn(C)c(=O)c2O)c1=O [Compound 9.003] | 1 (1=0-19% damage) | 1 (1=0-19% damage) | 1 (1=0-19% damage) | 1 (1=0-19% damage) | 2 (2=20-39% damage) | 1 (1=0-19% damage) | 1 (1=0-19% damage) | 2 (2=20-39% damage) | 1 (1=0-19% damage) | 4 (4=60-79% damage) | 4 (4=60-79% damage) | 2 (2=20-39% damage) |  |
| Cc1ccc2cc(-c3cnn(C)c(=O)c3O)c(C(F)(F)F)nc2n1 [Compound 1.154] |  |  |  |  |  |  |  |  |  |  |  |  | herbicidal damage, PRE Application ALOMY ([1]; five point scale): 2 (2=20-39% damage); herbicidal damage, PRE Application SETFA (Setaria faberi (SETFA) [2]; five point scale): 2 (2=20-39% damage); herbicidal damage, PRE Application ECHCG ([3]; five point scale): 5 (5=80-100% damage); herbicidal damage, PRE Application SOLNI (Solanum nigrum (SOLNI) [4]; five point scale): 2 (2=20-39% damage); herbicidal damage, PRE Application AMARE ([5]; five point scale): 5 (5=80-100% damage); herbicidal damage, PRE Application IPOHE ([6]; five point scale): 5 (5=80-100% damage); herbicidal damage, POST Application ALOMY ([7]; five point scale): 4 (4=60-79% damage); herbicidal damage, POST Application SETFA (Setaria faberi (SETFA) [8]; five point scale): 5 (5=80-100% damage); herbicidal damage, POST Application ECHCG ([9]; five point scale): 5 (5=80-100% damage); herbicidal damage, POST Application SOLNI (Solanum nigrum (SOLNI) [10]; five point scale): 5 (5=80-100% damage); herbicidal damage, POST Application AMARE ([11]; five point scale): 5 (5=80-100% damage); herbicidal damage, POST Application IPOHE ([12]; five point scale): 5 (5=80-100% damage) |
| Cn1ncc(-c2ccc(S(C)(=O)=O)c(F)c2Cl)c(O)c1=O [Compound 1.021] | 2 (2=20-39% damage) | 1 (1=0-19% damage) | 5 (5=80-100% damage) | 1 (1=0-19% damage) | 5 (5=80-100% damage) | 2 (2=20-39% damage) | 1 (1=0-19% damage) | 1 (1=0-19% damage) | 5 (5=80-100% damage) | 5 (5=80-100% damage) | 5 (5=80-100% damage) | 5 (5=80-100% damage) |  |
| COCn1ncc(-c2ccc(Cl)cc2S(C)(=O)=O)c(O)c1=O [Compound 2.005] | 5 (5=80-100% damage) | 5 (5=80-100% damage) | 5 (5=80-100% damage) | 5 (5=80-100% damage) | 5 (5=80-100% damage) | 5 (5=80-100% damage) | 5 (5=80-100% damage) | 5 (5=80-100% damage) | 5 (5=80-100% damage) | 5 (5=80-100% damage) | 5 (5=80-100% damage) | 5 (5=80-100% damage) |  |
| Cn1ncc(-c2ccccc2[S+](C)[O-])c(O)c1=O (stereo not drawn) [Compound 1.036] | 3 (3=40-59% damage) | 2 (2=20-39% damage) | 2 (2=20-39% damage) | 1 (1=0-19% damage) | 3 (3=40-59% damage) | 1 (1=0-19% damage) | 5 (5=80-100% damage) | 5 (5=80-100% damage) | 5 (5=80-100% damage) | 5 (5=80-100% damage) | 5 (5=80-100% damage) | 5 (5=80-100% damage) |  |
